Results: publication PMC10004634 (PLOS ONE, 2023)
Read-outs that look alike come from different tables or passages of the source.

Columns and labels:
Assay in all cases: biochemical
Design in all cases: KINOMEscan scanMAX competition binding, DNA-tagged kinases, qPCR read-out, percent control at 300 nM
[1] = biological target: MAP3K1 (Homo sapiens, UniProt Q13233)
[2] = biological target: T1, JAK1(JH2domain-pseudokinase) (Homo sapiens, UniProt P23458)
T1 construct: JH2domain-pseudokinase

[3] = biological target: MARK2 (Homo sapiens, UniProt Q7KZI7)
[4] = biological target: KIT(V559D) (Homo sapiens, UniProt P10721, V559D)
[5] = biological target: EGFR (Homo sapiens, UniProt P00533)
Sequence of EGFR (P00533 whole entry): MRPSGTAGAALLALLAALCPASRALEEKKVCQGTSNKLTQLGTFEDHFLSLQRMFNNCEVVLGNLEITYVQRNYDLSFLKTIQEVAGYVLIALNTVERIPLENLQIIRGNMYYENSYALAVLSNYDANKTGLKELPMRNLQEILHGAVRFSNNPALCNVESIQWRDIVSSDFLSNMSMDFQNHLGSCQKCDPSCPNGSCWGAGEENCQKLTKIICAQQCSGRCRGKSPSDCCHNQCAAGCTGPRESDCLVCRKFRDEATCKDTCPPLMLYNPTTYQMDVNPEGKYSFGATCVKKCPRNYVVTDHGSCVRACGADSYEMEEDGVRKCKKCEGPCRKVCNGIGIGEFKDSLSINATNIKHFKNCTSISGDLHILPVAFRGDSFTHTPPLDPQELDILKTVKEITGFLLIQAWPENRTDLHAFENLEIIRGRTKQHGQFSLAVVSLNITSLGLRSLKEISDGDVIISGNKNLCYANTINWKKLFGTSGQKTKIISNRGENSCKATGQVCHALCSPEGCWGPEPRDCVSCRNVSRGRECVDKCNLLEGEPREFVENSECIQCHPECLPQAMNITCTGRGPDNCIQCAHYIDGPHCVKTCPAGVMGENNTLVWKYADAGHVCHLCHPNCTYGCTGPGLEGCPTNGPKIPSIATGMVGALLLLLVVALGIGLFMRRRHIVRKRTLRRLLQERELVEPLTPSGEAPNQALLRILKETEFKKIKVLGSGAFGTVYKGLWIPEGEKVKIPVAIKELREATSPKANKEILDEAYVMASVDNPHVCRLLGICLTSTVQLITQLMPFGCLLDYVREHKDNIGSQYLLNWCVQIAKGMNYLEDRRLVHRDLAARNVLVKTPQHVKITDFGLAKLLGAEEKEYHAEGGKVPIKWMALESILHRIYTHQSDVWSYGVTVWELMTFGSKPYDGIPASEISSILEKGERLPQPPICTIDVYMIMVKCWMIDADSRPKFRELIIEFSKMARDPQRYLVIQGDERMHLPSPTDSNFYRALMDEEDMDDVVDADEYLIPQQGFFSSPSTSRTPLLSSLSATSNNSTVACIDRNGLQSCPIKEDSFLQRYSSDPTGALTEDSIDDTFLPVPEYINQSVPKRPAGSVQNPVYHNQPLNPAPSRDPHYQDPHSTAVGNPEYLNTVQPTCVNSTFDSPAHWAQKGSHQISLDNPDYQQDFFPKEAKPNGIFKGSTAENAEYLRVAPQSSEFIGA

[6] = biological target: CAMK1G (Homo sapiens, UniProt Q96NX5)
Sequence of CAMK1G (Q96NX5 whole entry): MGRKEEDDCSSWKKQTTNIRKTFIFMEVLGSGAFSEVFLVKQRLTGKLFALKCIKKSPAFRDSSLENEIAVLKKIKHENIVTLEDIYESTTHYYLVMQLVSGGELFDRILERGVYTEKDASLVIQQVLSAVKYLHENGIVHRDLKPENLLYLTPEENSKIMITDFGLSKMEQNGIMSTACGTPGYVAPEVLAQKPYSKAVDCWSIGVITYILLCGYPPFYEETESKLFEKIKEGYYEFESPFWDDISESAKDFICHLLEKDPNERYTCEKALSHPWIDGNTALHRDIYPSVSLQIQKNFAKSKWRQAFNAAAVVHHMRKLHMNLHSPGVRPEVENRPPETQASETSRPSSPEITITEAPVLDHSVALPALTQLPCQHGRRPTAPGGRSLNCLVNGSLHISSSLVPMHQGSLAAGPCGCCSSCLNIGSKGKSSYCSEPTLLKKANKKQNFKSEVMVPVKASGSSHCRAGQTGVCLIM

[7] = biological target: NEK7 (Homo sapiens, UniProt Q8TDX7)
[8] = biological target: PIK3CA(E545K) (Homo sapiens, UniProt P42336, E545K)
[9] = biological target: SBK1 (Homo sapiens, UniProt Q52WX2)
[10] = biological target: FGFR2 (Homo sapiens, UniProt P21802)
[11] = biological target: TIE1 (Homo sapiens, UniProt P35590)
[12] = biological target: FLT1 (Homo sapiens, UniProt P17948)
Sequence of FLT1 (P17948 whole entry): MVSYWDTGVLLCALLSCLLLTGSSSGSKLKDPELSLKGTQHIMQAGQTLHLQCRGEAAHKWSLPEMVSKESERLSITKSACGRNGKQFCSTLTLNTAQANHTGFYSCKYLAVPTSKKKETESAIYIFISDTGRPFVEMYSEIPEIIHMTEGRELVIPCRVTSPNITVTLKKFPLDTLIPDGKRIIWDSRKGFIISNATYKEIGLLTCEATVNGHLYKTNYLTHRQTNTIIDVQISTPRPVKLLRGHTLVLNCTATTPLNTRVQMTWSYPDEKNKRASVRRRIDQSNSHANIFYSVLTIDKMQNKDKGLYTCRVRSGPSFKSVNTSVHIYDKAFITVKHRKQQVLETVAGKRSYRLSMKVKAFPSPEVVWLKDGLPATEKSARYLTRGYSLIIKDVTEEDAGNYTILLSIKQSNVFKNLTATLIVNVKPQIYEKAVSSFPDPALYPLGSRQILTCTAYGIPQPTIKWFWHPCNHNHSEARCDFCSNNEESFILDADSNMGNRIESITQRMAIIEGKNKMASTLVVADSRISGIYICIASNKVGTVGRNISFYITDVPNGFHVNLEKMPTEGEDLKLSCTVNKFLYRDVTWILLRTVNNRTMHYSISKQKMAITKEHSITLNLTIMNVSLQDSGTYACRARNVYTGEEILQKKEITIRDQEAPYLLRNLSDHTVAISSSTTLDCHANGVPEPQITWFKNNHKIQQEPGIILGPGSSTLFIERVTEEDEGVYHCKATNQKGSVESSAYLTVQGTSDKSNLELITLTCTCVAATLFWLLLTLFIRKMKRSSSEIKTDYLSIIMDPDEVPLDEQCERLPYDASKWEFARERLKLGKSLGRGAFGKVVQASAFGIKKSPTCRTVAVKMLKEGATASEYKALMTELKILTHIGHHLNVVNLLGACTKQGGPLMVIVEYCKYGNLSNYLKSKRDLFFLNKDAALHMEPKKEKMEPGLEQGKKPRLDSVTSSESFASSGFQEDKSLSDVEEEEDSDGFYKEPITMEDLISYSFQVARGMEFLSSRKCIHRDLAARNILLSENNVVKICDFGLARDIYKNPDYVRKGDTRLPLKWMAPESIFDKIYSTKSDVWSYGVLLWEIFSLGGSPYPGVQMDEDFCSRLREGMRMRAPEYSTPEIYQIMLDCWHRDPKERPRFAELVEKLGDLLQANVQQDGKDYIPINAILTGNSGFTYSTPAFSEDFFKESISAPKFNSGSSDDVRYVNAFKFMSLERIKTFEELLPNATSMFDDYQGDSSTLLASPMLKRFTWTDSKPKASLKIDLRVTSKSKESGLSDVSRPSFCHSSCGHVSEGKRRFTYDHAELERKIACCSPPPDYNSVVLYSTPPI

[13] = biological target: T2, PIP5K2C (Homo sapiens, UniProt Q8TBX8)
T2 construct: gene PIP4K2C
T2 sequence (Q8TBX8 1-421): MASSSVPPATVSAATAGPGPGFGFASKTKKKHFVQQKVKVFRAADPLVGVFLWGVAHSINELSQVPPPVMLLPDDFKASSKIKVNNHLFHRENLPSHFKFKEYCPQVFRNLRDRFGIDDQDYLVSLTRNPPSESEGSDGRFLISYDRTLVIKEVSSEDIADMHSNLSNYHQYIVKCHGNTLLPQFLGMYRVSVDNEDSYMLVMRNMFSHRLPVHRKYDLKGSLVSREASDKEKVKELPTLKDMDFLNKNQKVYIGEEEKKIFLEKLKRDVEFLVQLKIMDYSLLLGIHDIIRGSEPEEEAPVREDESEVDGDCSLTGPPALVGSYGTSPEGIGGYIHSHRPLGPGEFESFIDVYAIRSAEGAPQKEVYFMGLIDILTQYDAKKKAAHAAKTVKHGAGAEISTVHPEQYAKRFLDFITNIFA

[14] = biological target: T3, TRKB (Homo sapiens, UniProt Q16620)
T3 construct: gene NTRK2

[15] = biological target: T4, PHKG2 (Homo sapiens, UniProt P15735)
T4 sequence (P15735 1-406): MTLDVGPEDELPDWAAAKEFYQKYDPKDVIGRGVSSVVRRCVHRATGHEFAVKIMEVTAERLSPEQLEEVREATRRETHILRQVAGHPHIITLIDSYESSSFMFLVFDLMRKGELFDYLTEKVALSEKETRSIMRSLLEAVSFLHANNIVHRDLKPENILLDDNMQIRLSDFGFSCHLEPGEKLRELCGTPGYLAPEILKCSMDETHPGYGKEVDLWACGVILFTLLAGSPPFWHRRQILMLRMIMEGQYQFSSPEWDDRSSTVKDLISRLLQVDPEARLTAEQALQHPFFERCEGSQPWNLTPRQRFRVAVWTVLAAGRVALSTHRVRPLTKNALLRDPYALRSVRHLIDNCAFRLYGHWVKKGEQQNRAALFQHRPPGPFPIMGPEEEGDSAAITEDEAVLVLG

[16] = biological target: DAPK2 (Homo sapiens, UniProt Q9UIK4)
Sequence of DAPK2 (Q9UIK4 whole entry): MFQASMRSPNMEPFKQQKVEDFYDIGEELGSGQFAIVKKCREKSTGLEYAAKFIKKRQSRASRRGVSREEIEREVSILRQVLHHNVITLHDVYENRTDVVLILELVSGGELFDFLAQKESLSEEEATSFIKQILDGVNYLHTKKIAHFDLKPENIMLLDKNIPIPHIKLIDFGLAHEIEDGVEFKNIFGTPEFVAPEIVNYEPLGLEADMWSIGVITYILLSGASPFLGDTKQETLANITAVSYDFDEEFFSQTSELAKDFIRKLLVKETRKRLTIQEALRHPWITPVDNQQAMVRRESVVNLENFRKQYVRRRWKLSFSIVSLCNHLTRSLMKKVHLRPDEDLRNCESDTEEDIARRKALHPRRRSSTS

[17] = biological target: T5, PRP4 (Homo sapiens, UniProt Q13523)
T5 construct: gene PRPF4B

[18] = read-out: Percent control / Acalabrutinib
[19] = read-out: Percent control / Ibrutinib
[20] = read-out: Percent control / Tirabrutinib
[21] = read-out: Percent control / Zanubrutinib

Sequence of MAP3K1 (Q13233 whole entry): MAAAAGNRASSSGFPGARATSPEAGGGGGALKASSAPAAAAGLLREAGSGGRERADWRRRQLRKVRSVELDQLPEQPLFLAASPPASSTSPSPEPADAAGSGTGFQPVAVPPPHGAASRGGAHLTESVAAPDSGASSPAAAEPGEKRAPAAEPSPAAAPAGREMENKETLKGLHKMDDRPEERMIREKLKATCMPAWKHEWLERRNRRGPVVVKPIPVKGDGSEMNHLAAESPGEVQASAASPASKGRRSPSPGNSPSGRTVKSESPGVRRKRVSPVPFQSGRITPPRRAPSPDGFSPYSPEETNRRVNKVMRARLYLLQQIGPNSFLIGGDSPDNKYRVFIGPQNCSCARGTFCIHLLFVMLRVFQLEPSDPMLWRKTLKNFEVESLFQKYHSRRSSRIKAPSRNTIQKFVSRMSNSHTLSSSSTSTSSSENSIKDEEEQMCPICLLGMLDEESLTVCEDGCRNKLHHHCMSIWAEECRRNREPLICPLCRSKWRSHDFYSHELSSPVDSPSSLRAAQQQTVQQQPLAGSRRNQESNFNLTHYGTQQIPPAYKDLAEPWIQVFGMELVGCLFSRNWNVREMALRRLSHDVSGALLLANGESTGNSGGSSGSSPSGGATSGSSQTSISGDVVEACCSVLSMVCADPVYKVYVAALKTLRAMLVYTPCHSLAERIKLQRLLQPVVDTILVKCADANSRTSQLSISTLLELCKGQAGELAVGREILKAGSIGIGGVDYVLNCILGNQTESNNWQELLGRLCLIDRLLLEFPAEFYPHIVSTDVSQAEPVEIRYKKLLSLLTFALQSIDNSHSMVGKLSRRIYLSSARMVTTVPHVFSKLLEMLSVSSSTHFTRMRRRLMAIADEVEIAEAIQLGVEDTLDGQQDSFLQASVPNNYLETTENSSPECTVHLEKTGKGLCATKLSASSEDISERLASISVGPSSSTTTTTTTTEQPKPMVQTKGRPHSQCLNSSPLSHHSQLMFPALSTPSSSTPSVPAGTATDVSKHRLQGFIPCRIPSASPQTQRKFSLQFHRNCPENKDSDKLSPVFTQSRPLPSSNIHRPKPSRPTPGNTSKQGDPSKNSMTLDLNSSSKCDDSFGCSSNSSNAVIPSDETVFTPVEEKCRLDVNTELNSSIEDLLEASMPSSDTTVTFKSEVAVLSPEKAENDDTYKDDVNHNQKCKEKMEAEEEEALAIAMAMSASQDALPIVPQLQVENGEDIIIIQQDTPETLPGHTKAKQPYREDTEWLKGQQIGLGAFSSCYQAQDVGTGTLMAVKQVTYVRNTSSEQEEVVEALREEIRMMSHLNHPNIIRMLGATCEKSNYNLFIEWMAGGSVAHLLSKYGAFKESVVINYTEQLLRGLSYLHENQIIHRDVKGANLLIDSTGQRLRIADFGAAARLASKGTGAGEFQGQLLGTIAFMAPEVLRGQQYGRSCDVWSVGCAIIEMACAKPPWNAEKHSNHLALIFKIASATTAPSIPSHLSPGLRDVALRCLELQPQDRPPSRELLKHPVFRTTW

In the case of `CC#CC(=O)N1CCC[C@H]1c1nc(-c2ccc(C(=O)Nc3ccccn3)cc2)c2c(N)nccn12` [Acalabrutinib], the remaining binding at 0.3 µM [1, 18] is reported as 96%, the remaining binding at 0.3 µM [2, 18] is reported as 99% and the remaining binding at 0.3 µM [3, 18] is reported as 91%. It also gave a remaining binding at 0.3 µM [4, 18] of 84%, a remaining binding at 0.3 µM [5, 18] of 82% and a remaining binding at 0.3 µM [6, 18] of 97%. It also gave a remaining binding at 0.3 µM [7, 18] of 76%, a remaining binding at 0.3 µM [8, 18] of 99% and a remaining binding at 0.3 µM [9, 18] of 91%. It also gave a remaining binding at 0.3 µM [10, 18] of 88%, a remaining binding at 0.3 µM [11, 18] of 86% and a remaining binding at 0.3 µM [12, 18] of 89%. It also gave a remaining binding at 0.3 µM [13, 18] of 90%.
With `C=CC(=O)N1CCC[C@@H](n2nc(-c3ccc(Oc4ccccc4)cc3)c3c(N)ncnc32)C1` [Ibrutinib] the remaining binding at 0.3 µM [1, 19] was 86%, the remaining binding at 0.3 µM [2, 19] was 80% and the remaining binding at 0.3 µM [3, 19] was 87%. For the same compound, the remaining binding at 0.3 µM [4, 19] was 55%, the remaining binding at 0.3 µM [5, 19] was 0.2% and the remaining binding at 0.3 µM [7, 19] was 97%. The remaining binding at 0.3 µM [8, 19] was 75%, the remaining binding at 0.3 µM [9, 19] was 47% and the remaining binding at 0.3 µM [14, 19] was 76%. It also gave a remaining binding at 0.3 µM [15, 19] of 81%, a remaining binding at 0.3 µM [10, 19] of 65% and a remaining binding at 0.3 µM [11, 19] of 75%. It also gave a remaining binding at 0.3 µM [16, 19] of 79%, a remaining binding at 0.3 µM [12, 19] of 82% and a remaining binding at 0.3 µM [17, 19] of 96%. The remaining binding at 0.3 µM [13, 19] was 81%.
`CC#CC(=O)N1CC[C@@H](n2c(=O)n(-c3ccc(Oc4ccccc4)cc3)c3c(N)ncnc32)C1` [Tirabrutinib] gave a remaining binding at 0.3 µM [2, 20] of 79%, a remaining binding at 0.3 µM [5, 20] of 100% and a remaining binding at 0.3 µM [6, 20] of 98%. The remaining binding at 0.3 µM [8, 20] was 78%, the remaining binding at 0.3 µM [9, 20] was 53% and the remaining binding at 0.3 µM [14, 20] was 79%. It also gave a remaining binding at 0.3 µM [15, 20] of 93%, a remaining binding at 0.3 µM [11, 20] of 90% and a remaining binding at 0.3 µM [16, 20] of 88%. For the same compound, the remaining binding at 0.3 µM [12, 20] was 74% and the remaining binding at 0.3 µM [17, 20] was 99%.
In the case of `C=CC(=O)N1CCC([C@@H]2CCNc3c(C(N)=O)c(-c4ccc(Oc5ccccc5)cc4)nn32)CC1` [Zanubrutinib], the remaining binding at 0.3 µM [1, 21] is reported as 84%, the remaining binding at 0.3 µM [2, 21] is reported as 88% and the remaining binding at 0.3 µM [3, 21] is reported as 90%. For the same compound, the remaining binding at 0.3 µM [4, 21] was 87%, the remaining binding at 0.3 µM [6, 21] was 96% and the remaining binding at 0.3 µM [7, 21] was 91%. For the same compound, the remaining binding at 0.3 µM [9, 21] was 94%, the remaining binding at 0.3 µM [14, 21] was 94% and the remaining binding at 0.3 µM [15, 21] was 92%. For the same compound, the remaining binding at 0.3 µM [10, 21] was 93%, the remaining binding at 0.3 µM [11, 21] was 98% and the remaining binding at 0.3 µM [16, 21] was 91%. It also gave a remaining binding at 0.3 µM [17, 21] of 100% and a remaining binding at 0.3 µM [13, 21] of 92%.
